As usually defined, the AC50 is the concentration at which the activity in the assay is half-maximal. The EC50 is the concentration that produces a half-maximal response. A word on the IC50: it is the concentration that inhibits the measured activity by half.

The structures appear in SMILES notation. Activity calls are given as the source filed them.

Some targets named below: Cytochrome P450 2C9 (Homo sapiens, UniProt P11712); Cytochrome P450 2D6 (Homo sapiens, UniProt P10635); Cytochrome P450 3A4 (Homo sapiens, UniProt P08684).
The target in another data set is Cytochrome P450 2C19 (Homo sapiens, UniProt P33261). Description: Cytochrome panel assay with activity outcomes. Panel member name: p450-cyp2c19 Compounds with AC50 equal or less than 10 uM are considered active. The data set is classed as functional.
Chain of Cytochrome P450 2C19 (P33261 whole entry): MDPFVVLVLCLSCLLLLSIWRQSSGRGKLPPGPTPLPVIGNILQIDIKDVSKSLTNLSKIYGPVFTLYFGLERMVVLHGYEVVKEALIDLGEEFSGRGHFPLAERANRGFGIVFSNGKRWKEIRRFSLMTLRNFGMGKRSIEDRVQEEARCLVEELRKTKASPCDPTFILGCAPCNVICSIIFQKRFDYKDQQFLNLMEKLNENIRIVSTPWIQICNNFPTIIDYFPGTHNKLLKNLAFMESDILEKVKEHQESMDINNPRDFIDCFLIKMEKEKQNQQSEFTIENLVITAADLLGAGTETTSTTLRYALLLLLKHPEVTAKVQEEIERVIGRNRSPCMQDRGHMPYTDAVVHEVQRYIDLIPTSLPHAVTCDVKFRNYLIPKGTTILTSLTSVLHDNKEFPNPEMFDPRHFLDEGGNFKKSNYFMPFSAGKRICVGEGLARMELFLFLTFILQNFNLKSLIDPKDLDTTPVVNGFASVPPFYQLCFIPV
Data set [1] has as its target T1, Short transient receptor potential channel 4 (Mus musculus, UniProt Q9QUQ5).
T1 sequence (Q9QUQ5 whole entry): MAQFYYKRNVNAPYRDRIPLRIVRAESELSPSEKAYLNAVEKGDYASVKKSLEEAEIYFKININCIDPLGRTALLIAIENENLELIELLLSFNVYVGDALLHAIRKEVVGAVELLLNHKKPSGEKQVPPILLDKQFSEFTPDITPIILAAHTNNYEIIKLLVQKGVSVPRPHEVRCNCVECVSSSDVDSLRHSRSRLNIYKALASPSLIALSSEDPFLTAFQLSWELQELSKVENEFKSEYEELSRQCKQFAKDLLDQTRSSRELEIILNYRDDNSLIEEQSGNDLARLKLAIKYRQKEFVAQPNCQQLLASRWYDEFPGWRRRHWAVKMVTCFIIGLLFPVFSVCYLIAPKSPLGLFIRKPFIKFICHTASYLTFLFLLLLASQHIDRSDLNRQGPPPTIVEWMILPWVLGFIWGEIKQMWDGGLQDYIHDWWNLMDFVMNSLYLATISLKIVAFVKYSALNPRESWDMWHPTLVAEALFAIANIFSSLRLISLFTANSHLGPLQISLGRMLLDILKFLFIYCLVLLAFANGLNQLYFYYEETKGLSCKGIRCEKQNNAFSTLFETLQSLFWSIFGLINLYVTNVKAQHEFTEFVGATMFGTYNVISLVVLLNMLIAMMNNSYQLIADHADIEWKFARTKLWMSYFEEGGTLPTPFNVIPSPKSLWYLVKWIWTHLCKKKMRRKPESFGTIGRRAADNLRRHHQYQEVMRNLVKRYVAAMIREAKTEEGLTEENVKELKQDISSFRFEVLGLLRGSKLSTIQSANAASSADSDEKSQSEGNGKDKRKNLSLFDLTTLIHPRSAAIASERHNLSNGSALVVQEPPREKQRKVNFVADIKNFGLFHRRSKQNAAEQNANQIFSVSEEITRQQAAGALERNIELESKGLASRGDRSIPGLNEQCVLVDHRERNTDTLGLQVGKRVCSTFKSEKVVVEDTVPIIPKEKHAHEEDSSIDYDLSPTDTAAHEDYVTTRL
Put plainly: block of DAMGO-driven TRPC4 calcium entry – cell-based, HEK293 TRPC4/mu-opioid, Fluo-4 calcium, dose response (AID 434942).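 Further: potency of inhibitors blocking the TRPC4 calcium response.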 Type of data set: functional.

Data set [2] in a line: A cytotoxicity screen of small molecule inhibitors of the PhoP region in Salmonella typhi identified in the primary screen. [Related pubchem assays: 1850, 1864, 1985 ]. Type of data set: functional.
Data set [3] addresses DNA repair protein RAD52 homolog (Homo sapiens, UniProt P43351). Type of data set: functional, biochemical.
In the next data set the target is CAAX prenyl protease 1 (Saccharomyces cerevisiae S288c, UniProt P47154). Description: yeast CAAX protease Ste24 inhibition – biochemical, S. cerevisiae, plate reader, cherry-pick, dose response (AID 488815).
Chain of CAAX prenyl protease 1 (P47154 whole entry): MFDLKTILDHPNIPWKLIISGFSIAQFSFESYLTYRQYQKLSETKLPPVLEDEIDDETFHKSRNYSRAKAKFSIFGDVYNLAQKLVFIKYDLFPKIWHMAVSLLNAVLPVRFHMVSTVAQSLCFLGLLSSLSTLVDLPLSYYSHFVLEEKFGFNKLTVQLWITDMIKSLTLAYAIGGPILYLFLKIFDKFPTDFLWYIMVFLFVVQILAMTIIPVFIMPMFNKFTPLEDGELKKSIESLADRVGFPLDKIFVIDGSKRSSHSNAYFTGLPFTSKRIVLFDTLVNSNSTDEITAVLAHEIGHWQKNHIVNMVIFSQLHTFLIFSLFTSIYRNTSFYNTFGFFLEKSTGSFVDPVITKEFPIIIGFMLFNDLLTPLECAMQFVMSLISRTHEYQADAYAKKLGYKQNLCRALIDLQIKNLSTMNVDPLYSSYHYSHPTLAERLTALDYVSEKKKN
The target of data set [4] is T2, DNA repair and recombination protein RAD54-like (Homo sapiens, UniProt Q92698).
T2 sequence (Q92698 whole entry): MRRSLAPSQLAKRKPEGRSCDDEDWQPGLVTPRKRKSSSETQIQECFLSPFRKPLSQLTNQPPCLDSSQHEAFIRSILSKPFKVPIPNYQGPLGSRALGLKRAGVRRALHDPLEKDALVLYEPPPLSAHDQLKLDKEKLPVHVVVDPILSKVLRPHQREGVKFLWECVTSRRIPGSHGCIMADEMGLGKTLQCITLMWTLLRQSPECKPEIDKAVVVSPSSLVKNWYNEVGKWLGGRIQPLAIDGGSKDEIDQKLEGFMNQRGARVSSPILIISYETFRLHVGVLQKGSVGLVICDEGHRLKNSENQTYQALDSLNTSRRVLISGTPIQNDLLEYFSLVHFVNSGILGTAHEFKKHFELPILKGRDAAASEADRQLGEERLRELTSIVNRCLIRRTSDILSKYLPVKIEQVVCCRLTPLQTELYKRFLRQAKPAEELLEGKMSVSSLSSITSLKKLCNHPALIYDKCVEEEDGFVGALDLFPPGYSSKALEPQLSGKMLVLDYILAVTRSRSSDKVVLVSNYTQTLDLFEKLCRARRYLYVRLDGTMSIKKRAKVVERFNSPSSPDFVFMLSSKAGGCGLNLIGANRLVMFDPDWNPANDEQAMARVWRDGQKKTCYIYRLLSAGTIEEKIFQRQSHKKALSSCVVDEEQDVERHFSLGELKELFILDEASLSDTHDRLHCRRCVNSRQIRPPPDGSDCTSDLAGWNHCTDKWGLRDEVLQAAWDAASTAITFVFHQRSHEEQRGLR
Description: RAD54 Holliday junction migration blockers – biochemical, fluorescence, cherry-picked samples, dose series, confirmation (AID 651657). The data set is classed as functional.

Data set [5] can be described thus: NIH-3T3 fibroblast cytotoxicity, dose response, cytotoxicity control, cell-based, fluorescence, Alamar Blue, secondary assay (AID 2327).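 Further: NIH-3T3 mouse fibroblasts cultured with fluconazole at 8 µg/mL.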 Type of data set: functional. Background: Alamar Blue is a resazurin reagent that responds to reducing activity.
The nature of data set [6]: fluconazole-exposed Candida albicans growth modulators – fluorescence, retest, confirmation (AID 2467). The data set is classed as functional, cell-based.
Data set [7] is described as follows: MIN6 cell viability loss – mouse insulinoma, cytotoxicity control, dose response (AID 2122).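 Further: confirmatory high-throughput counterscreen run to flag cytotoxic compounds.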 Type of data set: functional.
The nature of data set [8]: NIH3T3 cell viability loss – ATP luminescence, mouse fibroblasts, counter-screen, dose response (AID 2010).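 Further: cells exposed to compound for about 90 hours before reading.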 The data set is classed as functional, cell-based.
The nature of data set [9]: cells. Type of data set: functional, cell-based.
The target of data set [10] is T3, Intestinal-type alkaline phosphatase (Homo sapiens, UniProt P09923). Description: human intestinal alkaline phosphatase activators, dose response, biochemical, luminescence, uHTS hits (AID 463120). Type of data set: functional.
T3 sequence (P09923 whole entry): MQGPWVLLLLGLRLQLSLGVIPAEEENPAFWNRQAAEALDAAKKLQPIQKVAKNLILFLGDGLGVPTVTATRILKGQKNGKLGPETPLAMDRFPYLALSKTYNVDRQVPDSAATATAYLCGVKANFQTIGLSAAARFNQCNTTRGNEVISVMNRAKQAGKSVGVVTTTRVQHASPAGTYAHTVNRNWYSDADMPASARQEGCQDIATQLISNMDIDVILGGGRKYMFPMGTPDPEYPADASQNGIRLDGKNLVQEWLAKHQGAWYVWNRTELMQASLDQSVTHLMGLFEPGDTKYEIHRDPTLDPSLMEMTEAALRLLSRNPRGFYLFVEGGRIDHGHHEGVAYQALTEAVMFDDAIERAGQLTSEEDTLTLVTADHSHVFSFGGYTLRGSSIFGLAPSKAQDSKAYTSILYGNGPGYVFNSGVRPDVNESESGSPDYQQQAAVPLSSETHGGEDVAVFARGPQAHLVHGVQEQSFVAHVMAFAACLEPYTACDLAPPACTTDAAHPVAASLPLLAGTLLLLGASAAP
Data set [11] can be described thus: decrease of insulin promoter-GFP reporter – imaging, high-content screening, mouse beta cells (AID 1628). Type of data set: functional. The conditions noted are these: MIN6.
For data set [12], the target named is T3, Intestinal-type alkaline phosphatase. Put plainly: activation of human intestinal alkaline phosphatase – biochemical, luminescent, uHTS hits, set 2, dose response (AID 488817).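 Further: potency of activators that raise enzyme activity.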 Type of data set: functional.
For data set [13], the target named is Intestinal-type alkaline phosphatase (Mus musculus, UniProt P24822). Put plainly: PubChem AID 488874. Type of data set: functional.
Chain of Intestinal-type alkaline phosphatase (Mus musculus, UniProt P24822) (P24822 whole entry): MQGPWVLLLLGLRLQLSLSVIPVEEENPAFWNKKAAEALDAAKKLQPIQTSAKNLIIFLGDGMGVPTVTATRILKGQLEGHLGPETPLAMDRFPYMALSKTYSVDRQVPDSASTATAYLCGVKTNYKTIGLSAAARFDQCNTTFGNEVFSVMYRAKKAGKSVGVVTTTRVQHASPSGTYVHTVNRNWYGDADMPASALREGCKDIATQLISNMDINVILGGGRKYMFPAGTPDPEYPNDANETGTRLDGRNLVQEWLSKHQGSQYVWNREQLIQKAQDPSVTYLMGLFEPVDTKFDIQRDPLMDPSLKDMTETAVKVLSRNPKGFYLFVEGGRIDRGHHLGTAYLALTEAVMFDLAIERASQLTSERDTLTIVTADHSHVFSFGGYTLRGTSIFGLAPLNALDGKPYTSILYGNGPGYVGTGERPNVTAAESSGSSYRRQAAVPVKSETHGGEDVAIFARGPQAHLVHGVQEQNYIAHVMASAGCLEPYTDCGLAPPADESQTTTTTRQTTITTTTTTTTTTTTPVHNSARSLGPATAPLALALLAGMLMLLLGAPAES
Data set [14] can be described thus: cells. Type of data set: functional, cell-based. This is another data set of the same source.
In another data set the test system is INS1. Put plainly: INS-1E survival protection against cytokine death – cell-based, luminescence, retest, dose response (AID 449756).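 Further: cell death triggered by IL-1 beta plus TNF-alpha plus IFN-gamma mixture; protective hits raise ATP signal compared with cytokine alone wells.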 Particulars: Rattus norvegicus. Type of data set: functional.
The target in data set [15] is T4, Alkaline phosphatase, tissue-nonspecific isozyme (Homo sapiens, UniProt P05186).
T4 sequence (P05186 whole entry): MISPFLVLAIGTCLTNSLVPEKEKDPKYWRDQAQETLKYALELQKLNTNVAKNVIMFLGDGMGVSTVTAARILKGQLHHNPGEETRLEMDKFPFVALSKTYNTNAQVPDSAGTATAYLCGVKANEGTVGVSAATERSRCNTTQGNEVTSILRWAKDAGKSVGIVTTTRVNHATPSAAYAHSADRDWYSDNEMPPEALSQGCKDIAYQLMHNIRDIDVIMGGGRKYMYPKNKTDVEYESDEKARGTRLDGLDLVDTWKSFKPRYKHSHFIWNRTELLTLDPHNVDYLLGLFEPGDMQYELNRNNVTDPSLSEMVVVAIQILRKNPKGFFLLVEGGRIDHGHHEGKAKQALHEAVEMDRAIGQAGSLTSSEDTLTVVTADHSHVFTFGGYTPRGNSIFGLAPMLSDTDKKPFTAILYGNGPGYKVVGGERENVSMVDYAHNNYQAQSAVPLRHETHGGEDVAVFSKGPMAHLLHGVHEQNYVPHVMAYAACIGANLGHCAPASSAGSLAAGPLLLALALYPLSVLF
Put plainly: activation of tissue-nonspecific alkaline phosphatase – biochemical, TNAP isozyme, human IAP uHTS hits, selectivity assay for human IAP activator project, dose response (AID 488886).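 Further: potency of compounds raising TNAP activity as a selectivity check on IAP activators.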 Type of data set: functional.

Data set [16] is described as follows: Trypanosoma cruzi growth suppression in host cells – NIH3T3 host cells, beta-gal luminescence, confirmation (AID 2044).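 Further: intracellular parasites grown in NIH/3T3 mouse fibroblasts as host cells; luminescent beta-galactosidase reporter signal from transgenic T. cruzi replicating inside host cells; inhibitors lower the luminescence signal.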 The data set is classed as functional, cell-based.
Data set [17] in a line: luciferase reporter signal reduction – luminescence, H4-C neuroglioblastoma cells, dose response (AID 2458).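 Further: H4 neuroglioblastoma cells stably carrying a luciferase reporter gene fusion.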 The data set is classed as functional, cell-based. (A reporter such as luciferase makes a cellular process visible.)
The nature of data set [18]: HEK-293T viability loss after treatment – luminescence, T-cell screen hits, cytotoxicity control for TCR NF-kB inhibitor project, dose response (AID 489026).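 Further: cells exposed to compound about 14 hours before the viability readout.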 The data set is classed as functional, cell-based.
Data set [19] can be described thus: cells. Type of data set: functional, cell-based. The source holds these as a separate data set.
Data set [20] concerns Streptococcus sp. 'group A'. Put plainly: Streptococcus pyogenes SK(-)GAS viability under kanamycin – luminescence, BacTiterGlo, confirmation, counter-screen for streptokinase expression inhibitor project, dose response (AID 1900). Type of data set: functional, organism-based. In general terms: A counterscreen serves to expose hits that act by an unwanted route or on another target.

For a further data set, the system named is Streptococcus. Description: GAS UMAA2166 growth inhibition – luminescence, BacTiterGlo, counter-screen for streptokinase expression inhibitor project, dose response (AID 1915).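 Further: potency for reduction of bacterial viability or growth.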 Type of data set: functional, organism-based.
Data set [21] can be described thus: alpha-synuclein stem-loop luciferase translation blockers – H4 neuroglioma cells, luminescence, confirmation (AID 1988). The data set is classed as functional, cell-based.
Data set [22] is described as follows: alpha-synuclein stem-loop translation blockers – luminescence, H4 neuroglioblastoma cells, dose confirmation, confirmation (AID 2454).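 Further: H4 neuroglioblastoma cells carrying an alpha-synuclein 5'UTR luciferase reporter; potency for inhibition of the luciferase signal.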 The data set is classed as functional, cell-based.
The target of another data set is T5, Streptokinase A (Streptococcus pyogenes serotype M1, UniProt P10520).
T5 sequence (P10520 whole entry): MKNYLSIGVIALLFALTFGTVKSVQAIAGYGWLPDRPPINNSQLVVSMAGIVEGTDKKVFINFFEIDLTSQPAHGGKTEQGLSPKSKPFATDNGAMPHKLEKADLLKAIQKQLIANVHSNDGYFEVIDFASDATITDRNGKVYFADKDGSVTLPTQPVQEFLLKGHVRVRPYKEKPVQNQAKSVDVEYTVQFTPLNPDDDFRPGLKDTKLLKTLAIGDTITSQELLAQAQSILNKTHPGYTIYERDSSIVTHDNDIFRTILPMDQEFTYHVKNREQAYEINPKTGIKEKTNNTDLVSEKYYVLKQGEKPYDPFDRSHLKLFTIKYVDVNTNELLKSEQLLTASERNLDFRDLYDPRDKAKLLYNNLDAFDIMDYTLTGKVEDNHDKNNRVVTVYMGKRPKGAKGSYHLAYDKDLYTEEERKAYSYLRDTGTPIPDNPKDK
Put plainly: viability-normalized secreted streptokinase activity reduction – plasminogen activation absorbance, OD405, dose response (AID 1914).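 Further: secreted streptokinase activity via plasminogen activation per viability signal from cell pellet.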 Type of data set: functional, Streptococcus pyogenes M1 GAS.

Chain of Cytochrome P450 2D6 (P10635 whole entry): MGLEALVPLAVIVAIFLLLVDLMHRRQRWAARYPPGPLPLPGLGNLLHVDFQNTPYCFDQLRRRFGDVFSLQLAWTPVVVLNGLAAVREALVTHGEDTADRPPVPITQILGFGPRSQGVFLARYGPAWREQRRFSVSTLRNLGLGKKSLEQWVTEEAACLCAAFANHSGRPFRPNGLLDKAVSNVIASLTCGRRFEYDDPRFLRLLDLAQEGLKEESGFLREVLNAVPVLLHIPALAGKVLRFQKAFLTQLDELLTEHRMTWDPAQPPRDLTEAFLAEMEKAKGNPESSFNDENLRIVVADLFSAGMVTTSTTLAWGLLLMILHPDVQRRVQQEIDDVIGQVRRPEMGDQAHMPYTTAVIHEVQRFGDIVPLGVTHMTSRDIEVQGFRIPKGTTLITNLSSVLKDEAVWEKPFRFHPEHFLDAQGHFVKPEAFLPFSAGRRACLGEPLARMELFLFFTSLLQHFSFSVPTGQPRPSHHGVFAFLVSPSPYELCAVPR
Chain of Cytochrome P450 2C9 (P11712 whole entry): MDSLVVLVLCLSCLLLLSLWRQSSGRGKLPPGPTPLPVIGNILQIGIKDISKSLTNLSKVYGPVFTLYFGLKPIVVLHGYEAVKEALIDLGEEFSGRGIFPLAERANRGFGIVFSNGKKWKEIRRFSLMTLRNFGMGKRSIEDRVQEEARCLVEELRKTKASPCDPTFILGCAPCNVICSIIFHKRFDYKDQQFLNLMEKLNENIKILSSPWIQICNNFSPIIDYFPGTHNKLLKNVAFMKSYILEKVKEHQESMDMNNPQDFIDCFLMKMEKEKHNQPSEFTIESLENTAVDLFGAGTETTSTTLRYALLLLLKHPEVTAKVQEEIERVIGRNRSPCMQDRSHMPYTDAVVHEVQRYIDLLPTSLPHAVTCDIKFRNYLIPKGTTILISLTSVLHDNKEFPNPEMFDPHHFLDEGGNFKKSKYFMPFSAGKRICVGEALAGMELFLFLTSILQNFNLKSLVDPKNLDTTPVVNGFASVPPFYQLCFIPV
Chain of DNA repair protein RAD52 homolog (P43351 whole entry): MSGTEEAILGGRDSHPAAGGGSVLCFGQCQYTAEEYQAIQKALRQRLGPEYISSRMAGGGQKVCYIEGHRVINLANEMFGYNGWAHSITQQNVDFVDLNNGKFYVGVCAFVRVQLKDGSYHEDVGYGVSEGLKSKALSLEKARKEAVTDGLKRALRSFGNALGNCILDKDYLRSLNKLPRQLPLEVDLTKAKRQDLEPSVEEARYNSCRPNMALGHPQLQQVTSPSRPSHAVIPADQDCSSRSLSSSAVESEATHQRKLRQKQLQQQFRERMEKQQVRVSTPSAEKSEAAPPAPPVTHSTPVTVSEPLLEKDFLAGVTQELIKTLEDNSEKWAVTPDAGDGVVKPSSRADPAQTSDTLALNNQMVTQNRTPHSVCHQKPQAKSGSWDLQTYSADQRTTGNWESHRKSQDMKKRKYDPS
Chain of Cytochrome P450 3A4 (P08684 whole entry): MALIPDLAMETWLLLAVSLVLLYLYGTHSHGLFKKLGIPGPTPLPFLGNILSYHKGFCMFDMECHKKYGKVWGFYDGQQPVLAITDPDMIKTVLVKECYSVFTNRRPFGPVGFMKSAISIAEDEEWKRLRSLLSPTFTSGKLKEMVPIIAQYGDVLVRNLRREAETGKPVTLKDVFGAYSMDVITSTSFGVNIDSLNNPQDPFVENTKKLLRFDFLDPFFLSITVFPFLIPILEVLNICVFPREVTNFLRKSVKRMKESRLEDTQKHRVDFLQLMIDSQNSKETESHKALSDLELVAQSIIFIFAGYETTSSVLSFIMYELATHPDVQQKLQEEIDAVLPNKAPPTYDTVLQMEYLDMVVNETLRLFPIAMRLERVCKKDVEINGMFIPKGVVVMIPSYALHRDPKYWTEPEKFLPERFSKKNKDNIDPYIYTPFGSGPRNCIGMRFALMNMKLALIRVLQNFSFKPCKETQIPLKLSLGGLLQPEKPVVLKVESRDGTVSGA

With `O=C(Nc1nc2ccc(F)cc2s1)C1CCCO1` (configuration not stated), the figures for the AC50 at Cytochrome P450 2C9, at Cytochrome P450 2D6 and at Cytochrome P450 2C19 (read-out: AC50) were 39.8 µM (inconclusive), “inconclusive” and 25.1 µM (inconclusive), respectively.

For the compound `C[C@@H]1/C=C\CC(=O)OC[C@H](C)C(=O)N[C@@H](Cc2ccccc2)C(=O)OC1`, the AC50 at Cytochrome P450 3A4 is 3.16 µM (inconclusive); on Cytochrome P450 2D6, “inconclusive”; at Cytochrome P450 2C19, “inconclusive”.

As to `Cc1ccc2nc3c(c(N)c2c1)CCN3C`, the results for the EC50 in [1] and in data set [2] were 2.37 µM (active) and > 50 µM (active), respectively. Besides, the AC50 is 15.4 µM (active) in [3], 16.6 µM (active) at CAAX prenyl protease 1 and 21.7 µM (active) in data set [4].

Take `CCOc1ccc(/C=N/NC(=O)c2[nH]ncc2Br)c(O)c1`: the EC50 was 14.9 µM (active) in data set [5]; > 38 µM (not active) in data set [6]; 10.3 µM (active) in data set [8]; 191 µM (active) in the data set “cells [9]”; 6.69 µM (active) in data set [10]; 8.97 µM (active) in [12]. For the same compound, the figures for the EC50 (in the data set “cells [14]”; in [15]; in data set [16]) were 7.33 µM (active), 11.5 µM (active) and 1.48 µM (active), respectively. In addition, the values for the IC50 in data set [7], in data set [11] and in data set [13] were 3.4 µM (active), 3.83 µM (active) and 73.8 µM (active), respectively. Further, in the data set on INS1, the AC50 is 1.14 µM (active).

As for `Cc1c(C(=O)N/N=C/c2c(O)ccc3ccccc23)nnn1-c1nonc1N`, the EC50 was 0.898 µM (active) in [17]; 0.958 µM (active) in the data set “cells [19]”; 5.56 µM (active) in data set [20]; > 150 µM (not active) in the data set with Streptococcus; 7.47 µM (active) in data set [10]; 8.92 µM (active) in data set [12]. The EC50 in data set [21] is < 0.1 µM (active); in data set [22], 0.953 µM (active); in [15], 8.59 µM (active); on Streptokinase A, > 150 µM (not active). Besides, the IC50 was > 80 µM (inactive) in [18] and 95.2 µM (active) in [13]. The AC50 with INS1 was 0.317 µM (active).

(Values after ChEMBL document CHEMBL1201862, “PubChem BioAssay data set” (2004).)
